Source: ChEMBL document CHEMBL5356950, “Past, present and future of xanthine oxidase inhibitors: design strategies, structural and pharmacological insights, patents and clinical trials” (RSC Med Chem, 2023)

Key:
[1] = biological target: T1, Xanthine dehydrogenase/oxidase (Homo sapiens, UniProt P47989); assay: Inhibition of XO (unknown origin) relative to control
[2] = biological target: T2, Xanthine dehydrogenase/oxidase (Bos taurus, UniProt P80457); assay: Inhibition of Bovine milk XO using xanthine as substrate at 100 uM measured after 10 mins by microplate reader analysis relative to control; conditions: cattle
[3] = biological target: T2, Xanthine dehydrogenase/oxidase; assay: Inhibition of Bovine XO using xanthine as substrate assessed as decrease in uric acid level by spectrophotometric analysis
[4] = biological target: T2, Xanthine dehydrogenase/oxidase; assay: Inhibition of Bovine milk XO using xanthine as substrate assessed as decrease in uric acid level measured after 5 mins by spectrophotometric analysis
[5] = biological target: T2, Xanthine dehydrogenase/oxidase; assay: Inhibition of Bovine milk XO
[6] = Toxicity in Wistar rat assessed as decrease in serum uric acid level at 1 mg/kg, po measured after 6 hrs; type: organism-based; design: scale not given: the % may be the effect or the level left; conditions: in vivo
[7] = biological target: T2, Xanthine dehydrogenase/oxidase; assay: Inhibition of Bovine milk XO measured after 30 mins
[8] = biological target: T3, Solute carrier family 22 member 12 (Homo sapiens, UniProt Q96S37); assay: Inhibition of human URAT1
T3 sequence (Q96S37 whole entry): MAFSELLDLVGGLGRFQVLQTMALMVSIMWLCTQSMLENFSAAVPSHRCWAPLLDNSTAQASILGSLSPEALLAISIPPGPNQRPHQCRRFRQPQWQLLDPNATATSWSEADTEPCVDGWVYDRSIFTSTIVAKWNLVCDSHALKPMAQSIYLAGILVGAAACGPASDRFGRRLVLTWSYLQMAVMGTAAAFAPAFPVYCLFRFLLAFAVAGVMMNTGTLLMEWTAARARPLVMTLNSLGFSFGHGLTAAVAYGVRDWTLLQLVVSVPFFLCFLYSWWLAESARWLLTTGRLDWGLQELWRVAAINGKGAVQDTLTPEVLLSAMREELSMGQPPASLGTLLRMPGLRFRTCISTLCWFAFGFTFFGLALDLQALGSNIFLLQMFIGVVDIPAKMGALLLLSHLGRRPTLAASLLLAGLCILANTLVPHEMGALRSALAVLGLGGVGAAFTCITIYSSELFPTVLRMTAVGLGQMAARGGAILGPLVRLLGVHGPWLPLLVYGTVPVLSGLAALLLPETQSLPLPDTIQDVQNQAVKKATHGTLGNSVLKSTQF

[9] = biological target: T2, Xanthine dehydrogenase/oxidase; assay: Inhibition of Bovine milk XO using xanthine as substrate measured after 10 mins by spectrophotometric analysis relative to control; conditions: cattle
[10] = biological target: T2, Xanthine dehydrogenase/oxidase; assay: Inhibition of Bovine milk XO using xanthine as substrate measured after 10 mins by spectrophotometric analysis
[11] = biological target: T2, Xanthine dehydrogenase/oxidase; assay: Inhibition of Bovine XO using xanthine as substrate assessed as decrease in uric acid level measured after 10 mins by spectrophotometric analysis
[12] = biological target: T3, Solute carrier family 22 member 12; assay: Inhibition of URAT1 (unknown origin) assessed as decrease in uric acid level measured after 15 mins
[13] = biological target: T3, Solute carrier family 22 member 12; assay: Inhibition of URAT1 (unknown origin)
[14] = biological target: T1, Xanthine dehydrogenase/oxidase; assay: Inhibition of XO (unknown origin) using xanthine as substrate pre incubated for 5 mins followed by substrate addition measured after 1 mins by spectrophotometric analysis
[15] = biological target: T2, Xanthine dehydrogenase/oxidase; assay: Inhibition of Bovine milk XO using xanthine as substrate assessed as decrease in uric acid level pre incubated for 15 mins followed by substrate addition measured after 30 mins by spectrophotometric analysis
[16] = biological target: T1, Xanthine dehydrogenase/oxidase; assay: Inhibition of XO (unknown origin) using xanthine as substrate pre incubated for 15 mins followed by substrate addition measured after 30 mins by UV-VIS spectrophotometer analysis
[17] = biological target: T1, Xanthine dehydrogenase/oxidase; assay: Inhibition of XO (unknown origin) using xanthine as substrate measured after 10 mins
[18] = biological target: T1, Xanthine dehydrogenase/oxidase; assay: Inhibition of XO (unknown origin) using xanthine as substrate pre incubated for 10 mins followed by substrate addition measured after 15 mins
[19] = biological target: T2, Xanthine dehydrogenase/oxidase; assay: Inhibition of Bovine milk XO using xanthine as substrate pre incubated for 5 mins followed by substrate addition measured after 30 mins by spectrophotometric analysis
[20] = biological target: T2, Xanthine dehydrogenase/oxidase; assay: Inhibition of Bovine milk XO using xanthine as substrate assessed as decrease in uric acid level measured after 15 mins by spectrophotometric analysis
[21] = Toxicity in rat assessed as hypouricemic activity at 1 mg/kg; type: organism-based; conditions: in vivo
[22] = Toxicity in rat assessed as hypouricemic activity at 3 mg/kg measured after 24 hrs; type: organism-based; conditions: in vivo
[23] = biological target: T1, Xanthine dehydrogenase/oxidase; assay: Inhibition of XO (unknown origin) using xanthine as substrate measured after 2 to 3 mins by UV-spectrophotometric analysis
[24] = biological target: T2, Xanthine dehydrogenase/oxidase; assay: Inhibition of Bovine XO using xanthine as substrate assessed as decrease in uric acid level preincubated for 15 mins followed by substrate addition measured after 2 mins by spectrophotometric analysis
[25] = biological target: T4, Xanthine dehydrogenase/oxidase (Mus musculus, UniProt Q00519); assay: Inhibition of mouse serum XO assessed as decrease in uric acid level measured after 2 hrs relative to control
[26] = biological target: T4, Xanthine dehydrogenase/oxidase; assay: Inhibition of mouse serum XO assessed as decrease in uric acid level measured after 6 hrs relative to control
[27] = biological target: T1, Xanthine dehydrogenase/oxidase; assay: Inhibition of XO (unknown origin) using xanthine as substrate assessed as decrease in uric acid level measured after 3 mins by spectrophotometric analysis

T1 sequence (P47989 whole entry): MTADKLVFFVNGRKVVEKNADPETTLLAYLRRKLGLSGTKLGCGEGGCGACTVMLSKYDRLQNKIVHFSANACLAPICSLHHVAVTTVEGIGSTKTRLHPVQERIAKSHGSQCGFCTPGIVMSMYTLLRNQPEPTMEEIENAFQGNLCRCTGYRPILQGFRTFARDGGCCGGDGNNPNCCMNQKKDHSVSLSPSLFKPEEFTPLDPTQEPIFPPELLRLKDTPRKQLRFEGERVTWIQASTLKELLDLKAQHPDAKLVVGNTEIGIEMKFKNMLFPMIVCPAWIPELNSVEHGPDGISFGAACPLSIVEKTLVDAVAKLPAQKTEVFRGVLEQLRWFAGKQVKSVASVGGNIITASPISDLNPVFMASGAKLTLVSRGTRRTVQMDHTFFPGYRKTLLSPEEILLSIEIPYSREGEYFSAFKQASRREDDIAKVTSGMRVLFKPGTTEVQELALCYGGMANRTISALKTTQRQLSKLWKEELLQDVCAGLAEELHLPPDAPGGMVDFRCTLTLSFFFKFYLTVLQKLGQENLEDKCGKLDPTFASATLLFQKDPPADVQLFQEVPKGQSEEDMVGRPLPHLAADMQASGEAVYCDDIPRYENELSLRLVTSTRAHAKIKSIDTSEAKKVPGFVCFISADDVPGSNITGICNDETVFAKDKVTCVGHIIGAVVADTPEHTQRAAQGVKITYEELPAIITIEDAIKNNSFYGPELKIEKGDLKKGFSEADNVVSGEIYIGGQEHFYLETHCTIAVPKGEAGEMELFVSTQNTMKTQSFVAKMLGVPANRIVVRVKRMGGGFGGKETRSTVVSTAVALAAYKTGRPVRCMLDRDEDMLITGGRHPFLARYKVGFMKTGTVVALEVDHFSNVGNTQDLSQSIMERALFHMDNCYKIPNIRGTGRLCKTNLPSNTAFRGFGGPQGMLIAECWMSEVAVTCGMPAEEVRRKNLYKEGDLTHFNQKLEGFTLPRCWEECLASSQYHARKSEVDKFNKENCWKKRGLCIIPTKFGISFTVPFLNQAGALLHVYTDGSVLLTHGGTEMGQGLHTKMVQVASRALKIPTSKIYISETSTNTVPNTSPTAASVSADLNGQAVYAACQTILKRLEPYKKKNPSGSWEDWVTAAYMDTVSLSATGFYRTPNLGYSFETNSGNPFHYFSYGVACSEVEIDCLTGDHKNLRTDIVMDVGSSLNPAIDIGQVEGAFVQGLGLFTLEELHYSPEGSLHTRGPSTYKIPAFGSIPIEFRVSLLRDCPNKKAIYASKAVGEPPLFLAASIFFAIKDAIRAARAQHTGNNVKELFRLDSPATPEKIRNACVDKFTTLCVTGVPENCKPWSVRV
T2 sequence (P80457 whole entry): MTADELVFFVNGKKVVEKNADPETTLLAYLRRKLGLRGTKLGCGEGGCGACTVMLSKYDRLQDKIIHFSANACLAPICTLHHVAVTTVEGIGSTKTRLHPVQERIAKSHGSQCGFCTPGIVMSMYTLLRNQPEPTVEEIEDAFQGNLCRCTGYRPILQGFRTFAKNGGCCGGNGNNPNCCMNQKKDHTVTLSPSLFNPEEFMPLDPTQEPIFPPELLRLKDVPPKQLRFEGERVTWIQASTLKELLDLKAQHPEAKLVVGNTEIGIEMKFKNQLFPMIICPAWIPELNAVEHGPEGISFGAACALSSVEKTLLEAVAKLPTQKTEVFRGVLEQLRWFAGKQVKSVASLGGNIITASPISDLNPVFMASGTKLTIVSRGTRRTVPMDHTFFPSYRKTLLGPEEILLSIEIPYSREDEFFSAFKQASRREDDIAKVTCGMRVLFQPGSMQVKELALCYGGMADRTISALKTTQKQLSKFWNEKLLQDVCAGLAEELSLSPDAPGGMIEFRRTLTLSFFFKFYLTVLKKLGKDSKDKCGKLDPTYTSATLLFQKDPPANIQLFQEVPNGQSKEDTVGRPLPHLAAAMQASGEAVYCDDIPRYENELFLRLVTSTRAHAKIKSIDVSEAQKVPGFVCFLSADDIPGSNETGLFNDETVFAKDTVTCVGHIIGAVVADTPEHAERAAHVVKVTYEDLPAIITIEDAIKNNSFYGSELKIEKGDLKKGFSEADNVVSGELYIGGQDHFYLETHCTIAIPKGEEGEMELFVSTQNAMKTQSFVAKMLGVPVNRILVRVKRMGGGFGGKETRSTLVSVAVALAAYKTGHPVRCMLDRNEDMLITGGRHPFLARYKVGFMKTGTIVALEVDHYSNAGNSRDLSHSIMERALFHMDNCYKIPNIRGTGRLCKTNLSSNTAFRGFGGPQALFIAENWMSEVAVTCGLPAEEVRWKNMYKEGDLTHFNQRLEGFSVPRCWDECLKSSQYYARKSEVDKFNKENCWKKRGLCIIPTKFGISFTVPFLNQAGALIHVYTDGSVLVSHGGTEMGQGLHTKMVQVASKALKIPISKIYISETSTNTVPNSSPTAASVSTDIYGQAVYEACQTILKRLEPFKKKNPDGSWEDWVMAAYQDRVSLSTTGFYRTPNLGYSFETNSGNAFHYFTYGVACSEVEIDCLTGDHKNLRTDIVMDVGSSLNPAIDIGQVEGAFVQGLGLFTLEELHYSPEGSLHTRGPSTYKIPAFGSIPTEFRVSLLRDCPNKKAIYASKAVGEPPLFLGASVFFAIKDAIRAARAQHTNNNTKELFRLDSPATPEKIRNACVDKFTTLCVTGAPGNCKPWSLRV
T4 sequence (Q00519 whole entry): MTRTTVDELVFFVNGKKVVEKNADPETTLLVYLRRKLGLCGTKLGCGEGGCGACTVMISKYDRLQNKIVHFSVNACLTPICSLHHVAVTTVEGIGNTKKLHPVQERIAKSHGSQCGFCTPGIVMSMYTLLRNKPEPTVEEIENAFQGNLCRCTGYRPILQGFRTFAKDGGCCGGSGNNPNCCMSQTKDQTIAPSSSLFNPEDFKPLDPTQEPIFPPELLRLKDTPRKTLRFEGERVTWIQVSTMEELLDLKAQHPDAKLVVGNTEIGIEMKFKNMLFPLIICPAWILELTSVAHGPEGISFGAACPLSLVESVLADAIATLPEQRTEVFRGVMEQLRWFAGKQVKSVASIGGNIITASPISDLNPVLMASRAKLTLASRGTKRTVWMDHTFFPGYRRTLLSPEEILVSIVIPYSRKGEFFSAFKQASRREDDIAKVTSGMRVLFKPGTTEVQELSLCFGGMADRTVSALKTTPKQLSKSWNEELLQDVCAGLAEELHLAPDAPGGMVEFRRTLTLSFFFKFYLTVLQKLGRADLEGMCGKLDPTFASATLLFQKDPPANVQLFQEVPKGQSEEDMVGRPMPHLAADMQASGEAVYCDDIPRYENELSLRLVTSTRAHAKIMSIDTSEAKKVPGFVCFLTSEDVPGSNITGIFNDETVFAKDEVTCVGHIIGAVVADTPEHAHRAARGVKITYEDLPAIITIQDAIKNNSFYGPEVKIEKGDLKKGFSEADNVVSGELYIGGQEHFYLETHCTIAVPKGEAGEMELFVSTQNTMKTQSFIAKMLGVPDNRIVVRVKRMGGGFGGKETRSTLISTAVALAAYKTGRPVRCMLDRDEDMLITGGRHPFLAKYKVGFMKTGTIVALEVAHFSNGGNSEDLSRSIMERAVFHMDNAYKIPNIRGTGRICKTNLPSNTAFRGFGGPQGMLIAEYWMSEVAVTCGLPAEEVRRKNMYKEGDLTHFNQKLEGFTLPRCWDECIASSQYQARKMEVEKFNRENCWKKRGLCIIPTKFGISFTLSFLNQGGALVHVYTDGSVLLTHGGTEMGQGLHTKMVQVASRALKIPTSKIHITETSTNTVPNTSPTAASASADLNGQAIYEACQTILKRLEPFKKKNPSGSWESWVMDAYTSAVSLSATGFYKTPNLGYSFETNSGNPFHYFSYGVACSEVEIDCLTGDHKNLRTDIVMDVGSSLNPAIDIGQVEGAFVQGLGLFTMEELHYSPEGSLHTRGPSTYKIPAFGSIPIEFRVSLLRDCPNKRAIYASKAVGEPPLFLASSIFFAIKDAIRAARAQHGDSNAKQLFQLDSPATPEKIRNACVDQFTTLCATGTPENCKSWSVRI

## Clc1cc2nc(-c3ccncc3)[nH]c2cc1Cl
[1]
  inhibition (INH): 56%

## N#Cc1cn(-c2ccc(C(=O)O)c(O)c2)cc1-c1cccs1
[2]
  inhibition at 100 µM: > 90%

## CCCCc1cn(-c2ccc(C(=O)O)c(O)c2)cc1C#N
[2]
  inhibition at 100 µM: > 90%

## O=C(O)c1ccc2c(c1)C(=O)N(c1ccccc1)C2=O
[3]
  IC50: 7.15 µM

## O=c1oc2cc(O)cc(O)c2cc1-c1cccc(O)c1
[4]
  IC50: 2.13 µM

## OCc1ccc(O)c(O)c1
[5]
  IC50: 3 µM

## Cc1cc(-c2nc(-c3ccc(OCC(C)C)c([N+](=O)[O-])c3)n[nH]2)ccn1
[6]
  Activity: 66.5%

## Cc1cc(-c2n[nH]c(-c3ccc(OCC(C)C)c(C#N)c3)n2)ccn1
[6]
  Activity: 67.5%

## Cc1nc(-c2cc(I)c3c(c2)CCC(C)(C)O3)sc1C(=O)O
[7]
  IC50: 0.00187 µM

## CCC1(C)Cc2cc(-c3nc(C)c(C(=O)O)s3)cc(C#N)c2O1 (stereo unspecified)
[7]
  IC50: 0.00135 µM

## COC(=O)C(Sc1nnc(Br)n1-c1ccc(Br)c2ccccc12)C(=O)OC
[8]
  IC50: 0.0197 µM

## Cc1ccc2c(-c3ccc(C(=O)O)c(O)c3)cc(C#N)n2n1
[9]
  inhibition (INH): 60%
[10]
  IC50: 0.003 µM

## COc1cc(OC)c(C(=O)/C=C/c2ccccc2F)c(O)c1C(=O)/C=C/c1ccccc1F
[11]
  IC50: 0.728 µM

## N#Cc1ccc(NS(=O)(=O)c2ccccc2OC(F)(F)F)cc1Cl
[12]
  IC50: 0.006 µM

## O=C(Nc1ccc(-c2nnn[nH]2)cc1)c1c(O)[nH]c(=S)[nH]c1=O
[13]
  IC50: 0.39 µM

## COc1ccc(-c2cc3cc([N+](=O)[O-])ccc3oc2=O)cc1
[14]
  IC50: 8.4 µM

## O=[N+]([O-])c1ccc(CSc2nnc(-c3cc(-c4ccccc4)nn3Cc3ccccc3)o2)cc1
[15]
  IC50: 72.4 µM

## O=Cc1ccc(C2Nc3ccccc3-c3cc(-c4ccccc4)nn32)c([N+](=O)[O-])c1 (stereo unspecified)
[16]
  IC50: 11 µM

## Cc1nc(-c2cc(C#N)c3c(c2)CCC(C)(C)O3)[se]c1C(=O)O
[7]
  IC50: 0.00236 µM

## Cc1nc(-c2cc(C#N)c3c(c2)CC2(CCCCC2)O3)sc1C(=O)O
[7]
  IC50: 0.0014 µM

## Cc1nc(-c2cc(C#N)c3c(c2)CCC(C)(C)O3)sc1C(=O)O
[7]
  IC50: 0.00265 µM

## Nn1c(S)nnc1-c1cc(-c2ccccc2)nn1Cc1ccccc1
[15]
  IC50: 65.4 µM

## Cc1nc(-c2cc(C#N)c3c(c2)CC2(CCCC2)O3)[se]c1C(=O)O
[7]
  IC50: 0.00158 µM

## COCOc1cccc(-c2c[nH]cc2C#N)c1
[2]
  inhibition at 100 µM: > 90%

## N#Cc1c(Cl)cc(NS(=O)(=O)c2ccccc2OC(F)(F)F)cc1Cl
[12]
  IC50: 0.004 µM

## O=C1CC(c2ccccc2)Oc2c3c(c(CO)c(O)c21)OCN(c1ccc(F)cc1)C3 (stereo unspecified)
[1]
  inhibition (INH): 84.27%

## COC(=O)[C@H]1C[C@@H](n2cc(-c3ccccc3)nn2)[C@H](O)C[C@H]1C(=O)OC
[17]
  IC50: 0.586 µM

## O=C(NC(Cc1ccccc1)C(=O)O)c1ccc2c(c1)C(=O)c1ccccc1C2=O (stereo unspecified)
[11]
  IC50: 2.9 µM

## CN1C(=O)C(=Cc2ccc(Cl)cc2Cl)C(=O)N(C)C1=O
[18]
  IC50: 21000 µM

## Cc1nn(-c2ccc(OCCC(C)C)c(C#N)c2)nc1C(=O)O
[19]
  IC50: 0.084 µM

## O=[N+]([O-])c1cc(C2=NC3=CN=CN(O)C3S2)ccc1Oc1ccccc1F (stereo unspecified)
[10]
  IC50: 0.0054 µM

## CCOC(=O)c1sc(-c2cc(I)c3c(c2)CCC(C)(C)O3)nc1C
[7]
  IC50: 0.0013 µM

## O=C(/C=C/c1cc(O)cc(O)c1)c1ccc(O)cc1O
[20]
  IC50: 22.5 µM

## Cc1nc(-c2ccc(OC(C)C)c(-n3cnnn3)c2)sc1C(=O)O
[21]
  Activity: 50%

## Cc1nc(-c2ccc(OCC(C)(C)C)c(-n3cnnn3)c2)sc1C(=O)O
[21]
  Activity: 50%
[22]
  Activity: 40%

## Cc1nc(-c2cc(C#N)c3c(c2)CC(C)O3)sc1C(=O)O (stereo unspecified)
[7]
  IC50: 0.00184 µM

## COc1ccc([C@@H]2C/C(=N\c3ccc([N+](=O)[O-])cc3Cl)C3C(O)=CC(O[C@H]4C[C@@H](OC5O[C@H](C)[C@@H](O)[C@H](O)C5O)[C@H](O)[C@@H](O)[C@@H]4O)=CC3O2)cc1O (stereo partly specified)
[23]
  IC50: 0.263 µM

## Cc1nc(-c2ccc(OCC(C)C)c(-n3cnnn3)c2)sc1C(=O)O
[21]
  Activity: 50%
[22]
  Activity: 40%

## O=c1[nH]c(-c2ccc(OCC3CCCCC3)c(-n3cnnn3)c2)no1
[24]
  IC50: 0.121 µM

## Cc1cc(C)c(C[n+]2cn(CCO)c3ccccc32)c(C)c1
[17]
  IC50: 1.25 µM

## Oc1ncnc2[nH]ncc12 [ALLOPURINOL]
[25]
  inhibition (INH): 33%
[26]
  inhibition (INH): 14%

## COc1ccc2c(c1)c(CC(=O)O)c(C)n2C(=O)c1ccc(Cl)cc1 [INDOMETHACIN]
[27]
  IC50: 86 µM
